Results reported in PubChem BioAssay AID248 (DTP/NCI, 2004).
Several values for one entry are separate records, joined by “and”; a condition that tells them apart may be missing. Equal values may be shown once. Inconclusive results and toxic doses are left out. Rule as the data show it: active = T/C of 150% or more; inactive = T/C below 125%.

System: L1210 leukemia ip in BDF1 mice, survival T/C
Assay: NCI In Vivo Anticancer Drug Screen. Data for tumor model L1210 Leukemia (intraperitoneal) in B6D2F1 (BDF1) mice
Details: higher = longer survival
Summary of the method: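 Read-out is survival time, reported as the treated-group measurement over the vehicle-control measurement.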

Measured: T/C

O=C(CCBr)N1CCN(C(=O)CCBr)CC1
active: endpoint: mean survival time, dose: 18.0 mg/kg/injection, schedule: Q01DX009 (ip), vehicle: saline 155 % of control and 158 % of control | endpoint: mean survival time, dose: 36.0 mg/kg/injection, schedule: Q01DX009 (ip), vehicle: saline 160 % of control and 186 % of control | endpoint: mean survival time, dose: 36.0 mg/kg/injection, schedule: Q01DX Z (ip), vehicle: carboxymethylcellulose (CMC) 150 % of control | endpoint: mean survival time, dose: 45.0 mg/kg/injection, schedule: Q01DX Z (ip), vehicle: methylcellulose (MC) 172 % of control | endpoint: mean survival time, dose: 54.0 mg/kg/injection, schedule: Q01DX009 (ip), vehicle: saline 183 % of control and 208 % of control | endpoint: mean survival time, dose: 90.0 mg/kg/injection, schedule: Q01DX Z (ip), vehicle: methylcellulose (MC) 155 % of control | endpoint: mean survival time, dose: 100.0 mg/kg/injection, schedule: Q01DX Z (ip), vehicle: carboxymethylcellulose (CMC) 155 % of control | endpoint: mean survival time, dose: 100.0 mg/kg/injection, schedule: Q01DX Z (oral), vehicle: carboxymethylcellulose (CMC) 162 % of control | endpoint: mean survival time, dose: 120.0 mg/kg/injection, schedule: Q01DX009 (ip), vehicle: saline 202 % of control and 218 % of control | endpoint: mean survival time, dose: 150.0 mg/kg/injection, schedule: Q03DX008 (ip), vehicle: carboxymethylcellulose (CMC) 205 % of control | endpoint: mean survival time, dose: 200.0 mg/kg/injection, schedule: Q01DX Z (im), vehicle: carboxymethylcellulose (CMC) 158 % of control | endpoint: mean survival time, dose: 200.0 mg/kg/injection, schedule: Q01DX Z (ip), vehicle: carboxymethylcellulose (CMC) 162 % of control | endpoint: mean survival time, dose: 200.0 mg/kg/injection, schedule: Q01DX Z (sc), vehicle: carboxymethylcellulose (CMC) 158 % of control | endpoint: mean survival time, dose: 300.0 mg/kg/injection, schedule: Q03DX008 (ip), vehicle: carboxymethylcellulose (CMC) 181 % of control | endpoint: mean survival time, dose: 350.0 mg/kg/injection, schedule: Q07DX004 (ip), vehicle: carboxymethylcellulose (CMC) 215 % of control | endpoint: mean survival time, dose: 400.0 mg/kg/injection, schedule: Q04DX003 (ip), vehicle: saline 153 % of control and 180 % of control | endpoint: median survival time, dose: 40.0 mg/kg/injection, schedule: Q01DX009 (ip), vehicle: saline 150 % of control | endpoint: median survival time, dose: 80.0 mg/kg/injection, schedule: Q01DX009 (ip), vehicle: saline 181 % of control and 183 % of control
inactive: endpoint: mean survival time, dose: 1.33 mg/kg/injection, schedule: Q#B X Z (ip), vehicle: carboxymethylcellulose (CMC) 86 % of control | endpoint: mean survival time, dose: 2.66 mg/kg/injection, schedule: Q#B X Z (ip), vehicle: carboxymethylcellulose (CMC) 108 % of control | endpoint: mean survival time, dose: 3.2 mg/kg/injection, schedule: Q01DX Z (oral), vehicle: carboxymethylcellulose (CMC) 100 % of control | endpoint: mean survival time, dose: 5.33 mg/kg/injection, schedule: Q#B X Z (ip), vehicle: carboxymethylcellulose (CMC) 103 % of control | endpoint: mean survival time, dose: 5.5 mg/kg/injection, schedule: Q07DX006 (ip), vehicle: carboxymethylcellulose (CMC) 111 % of control | endpoint: mean survival time, dose: 5.6 mg/kg/injection, schedule: Q01DX Z (ip), vehicle: methylcellulose (MC) 120 % of control | endpoint: mean survival time, dose: 10.0 mg/kg/injection, schedule: Q01DX009 (ip), vehicle: saline 94 % of control and 102 % of control | endpoint: mean survival time, dose: 10.6 mg/kg/injection, schedule: Q01DX Z (ip), vehicle: carboxymethylcellulose (CMC) 108 % of control and 117 % of control | endpoint: mean survival time, dose: 10.66 mg/kg/injection, schedule: Q#B X Z (ip), vehicle: carboxymethylcellulose (CMC) 86 % of control | endpoint: mean survival time, dose: 10.9 mg/kg/injection, schedule: Q07DX006 (ip), vehicle: carboxymethylcellulose (CMC) 90 % of control | endpoint: mean survival time, dose: 11.25 mg/kg/injection, schedule: Q01DX Z (ip), vehicle: methylcellulose (MC) 115 % of control | endpoint: mean survival time, dose: 12.0 mg/kg/injection, schedule: Q01DX006 (iv), vehicle: carboxymethylcellulose (CMC) 113 % of control | endpoint: mean survival time, dose: 12.0 mg/kg/injection, schedule: Q01DX Z (im), vehicle: carboxymethylcellulose (CMC) 101 % of control | endpoint: mean survival time, dose: 12.0 mg/kg/injection, schedule: Q01DX Z (ip), vehicle: carboxymethylcellulose (CMC) 95 % of control | endpoint: mean survival time, dose: 12.0 mg/kg/injection, schedule: Q01DX Z (sc), vehicle: carboxymethylcellulose (CMC) 94 % of control | endpoint: mean survival time, dose: 12.5 mg/kg/injection, schedule: Q01DX Z (oral), vehicle: carboxymethylcellulose (CMC) 110 % of control | endpoint: mean survival time, dose: 16.0 mg/kg/injection, schedule: Q01DX Z (ip), vehicle: carboxymethylcellulose (CMC) 111 % of control | endpoint: mean survival time, dose: 20.0 mg/kg/injection, schedule: Q01DX009 (ip), vehicle: saline 103 % of control and 108 % of control | endpoint: mean survival time, dose: 21.8 mg/kg/injection, schedule: Q07DX006 (ip), vehicle: carboxymethylcellulose (CMC) 106 % of control | endpoint: mean survival time, dose: 24.0 mg/kg/injection, schedule: Q01DX Z (ip), vehicle: carboxymethylcellulose (CMC) 111 % of control | endpoint: mean survival time, dose: 25.0 mg/kg/injection, schedule: Q01DX001 (ip), vehicle: saline 99 % of control and 106 % of control and 111 % of control | endpoint: mean survival time, dose: 25.0 mg/kg/injection, schedule: Q01DX006 (iv), vehicle: carboxymethylcellulose (CMC) 94 % of control | endpoint: mean survival time, dose: 25.0 mg/kg/injection, schedule: Q01DX Z (im), vehicle: carboxymethylcellulose (CMC) 94 % of control | endpoint: mean survival time, dose: 25.0 mg/kg/injection, schedule: Q01DX Z (ip), vehicle: carboxymethylcellulose (CMC) 98 % of control | endpoint: mean survival time, dose: 25.0 mg/kg/injection, schedule: Q01DX Z (oral), vehicle: carboxymethylcellulose (CMC) 120 % of control | endpoint: mean survival time, dose: 25.0 mg/kg/injection, schedule: Q01DX Z (sc), vehicle: carboxymethylcellulose (CMC) 103 % of control | endpoint: mean survival time, dose: 37.0 mg/kg/injection, schedule: Q03DX008 (ip), vehicle: carboxymethylcellulose (CMC) 104 % of control | endpoint: mean survival time, dose: 50.0 mg/kg/injection, schedule: Q01DX001 (ip), vehicle: saline 110 % of control and 111 % of control and 116 % of control | endpoint: mean survival time, dose: 50.0 mg/kg/injection, schedule: Q01DX006 (iv), vehicle: carboxymethylcellulose (CMC) 113 % of control | endpoint: mean survival time, dose: 50.0 mg/kg/injection, schedule: Q01DX Z (im), vehicle: carboxymethylcellulose (CMC) 110 % of control | endpoint: mean survival time, dose: 50.0 mg/kg/injection, schedule: Q01DX Z (ip), vehicle: carboxymethylcellulose (CMC) 123 % of control | endpoint: mean survival time, dose: 50.0 mg/kg/injection, schedule: Q01DX Z (sc), vehicle: carboxymethylcellulose (CMC) 116 % of control | endpoint: mean survival time, dose: 81.0 mg/kg/injection, schedule: Q01DX Z (ip), vehicle: carboxymethylcellulose (CMC) 117 % of control | endpoint: mean survival time, dose: 100.0 mg/kg/injection, schedule: Q01DX001 (ip), vehicle: carboxymethylcellulose (CMC) 103 % of control and 110 % of control | endpoint: mean survival time, dose: 100.0 mg/kg/injection, schedule: Q01DX001 (ip), vehicle: saline 121 % of control | endpoint: mean survival time, dose: 100.0 mg/kg/injection, schedule: Q01DX006 (iv), vehicle: carboxymethylcellulose (CMC) 123 % of control | endpoint: mean survival time, dose: 100.0 mg/kg/injection, schedule: Q04DX003 (ip), vehicle: saline 111 % of control | endpoint: mean survival time, dose: 200.0 mg/kg/injection, schedule: Q01DX001 (ip), vehicle: carboxymethylcellulose (CMC) 108 % of control and 124 % of control | endpoint: mean survival time, dose: 200.0 mg/kg/injection, schedule: Q01DX Z (oral), vehicle: carboxymethylcellulose (CMC) 90 % of control | endpoint: mean survival time, dose: 400.0 mg/kg/injection, schedule: Q01DX001 (ip), vehicle: carboxymethylcellulose (CMC) 102 % of control | endpoint: mean survival time, dose: 400.0 mg/kg/injection, schedule: Q01DX001 (ip), vehicle: saline 114 % of control | endpoint: mean survival time, dose: 400.0 mg/kg/injection, schedule: Q01DX Z (im), vehicle: carboxymethylcellulose (CMC) 100 % of control | endpoint: mean survival time, dose: 400.0 mg/kg/injection, schedule: Q01DX Z (ip), vehicle: carboxymethylcellulose (CMC) 94 % of control | endpoint: mean survival time, dose: 400.0 mg/kg/injection, schedule: Q01DX Z (sc), vehicle: carboxymethylcellulose (CMC) 98 % of control | endpoint: mean survival time, dose: 600.0 mg/kg/injection, schedule: Q03DX003 (ip), vehicle: carboxymethylcellulose (CMC) 90 % of control | endpoint: mean survival time, dose: 700.0 mg/kg/injection, schedule: Q07DX004 (ip), vehicle: carboxymethylcellulose (CMC) 100 % of control | endpoint: mean survival time, dose: 800.0 mg/kg/injection, schedule: Q01DX001 (ip), vehicle: carboxymethylcellulose (CMC) 98 % of control and 116 % of control | endpoint: median survival time, dose: 10.0 mg/kg/injection, schedule: Q01DX009 (ip), vehicle: saline 105 % of control and 87 % of control
